The values that follow come from US12668594B2, “TYK2 inhibitors and uses thereof” (Sudo Biosciences Limited, priority 2020, dated 2026).

Structures are written as SMILES.

In general, IC50 refers to the concentration that gives 50% inhibition.

In assay [1] the target is T1, TYK2 (Homo sapiens, UniProt P29597). Kind of assay: HEK-Blue IL-23 reporter assay (SEAP) for TYK2 pseudokinase inhibition. The format is cell-based. Further details: HEK-Blue™ IL-23 and IFNα/β cells with a stably-integrated cytokine receptor and STAT3 or STAT1; host or cells: HEK-Blue IL-23 / HEK-Blue IFNα/β cells (HEK293 background). The note with it: HEK-Blue IL-23 cells, 10 ng/mL human recombinant IL-23, SEAP reporter; read-out: IL23 IC50. As to the method: (§1) HEK-Blue™ IL-23 and IFNα/β cells with a stably-integrated cytokine receptor and STAT3 or STAT1 express STAT-inducible secreted embryonic alkaline phosphatase (SEAP) reporter gene upon cytokine stimulation. These cells are plated in DMVEM (Gibco) containing 10% heat-inactivated FBS (Gibco) and 100 U/mL PenStrep (Gibco) at 37° C. under […] conditions for 20-22 hours. The cells are then pretreated with serially diluted test compounds for 60 min prior to stimulation with either 10 ng/mL human recombinant IL-23 (Miltenyl Biotech) or 1 ng/mL human recombinant IFNα (InvivoGen) for 22-24 hours for IL-23 or 16-18 h for IFNα. SEAP induction is measured using the QUANTI Blue™ Solution (InvivoGen) according to the manufacturer's instructions. Inhibition data are calculated by comparison to no inhibitor control wells for 000 inhibition and non-stimulated control wells for 10000 inhibition. Dose response curves are generated to determine the concentration required to inhibit 5000 of cellular response (IC50) as derived by non-linear regression analysis.
T1 sequence (P29597 whole entry): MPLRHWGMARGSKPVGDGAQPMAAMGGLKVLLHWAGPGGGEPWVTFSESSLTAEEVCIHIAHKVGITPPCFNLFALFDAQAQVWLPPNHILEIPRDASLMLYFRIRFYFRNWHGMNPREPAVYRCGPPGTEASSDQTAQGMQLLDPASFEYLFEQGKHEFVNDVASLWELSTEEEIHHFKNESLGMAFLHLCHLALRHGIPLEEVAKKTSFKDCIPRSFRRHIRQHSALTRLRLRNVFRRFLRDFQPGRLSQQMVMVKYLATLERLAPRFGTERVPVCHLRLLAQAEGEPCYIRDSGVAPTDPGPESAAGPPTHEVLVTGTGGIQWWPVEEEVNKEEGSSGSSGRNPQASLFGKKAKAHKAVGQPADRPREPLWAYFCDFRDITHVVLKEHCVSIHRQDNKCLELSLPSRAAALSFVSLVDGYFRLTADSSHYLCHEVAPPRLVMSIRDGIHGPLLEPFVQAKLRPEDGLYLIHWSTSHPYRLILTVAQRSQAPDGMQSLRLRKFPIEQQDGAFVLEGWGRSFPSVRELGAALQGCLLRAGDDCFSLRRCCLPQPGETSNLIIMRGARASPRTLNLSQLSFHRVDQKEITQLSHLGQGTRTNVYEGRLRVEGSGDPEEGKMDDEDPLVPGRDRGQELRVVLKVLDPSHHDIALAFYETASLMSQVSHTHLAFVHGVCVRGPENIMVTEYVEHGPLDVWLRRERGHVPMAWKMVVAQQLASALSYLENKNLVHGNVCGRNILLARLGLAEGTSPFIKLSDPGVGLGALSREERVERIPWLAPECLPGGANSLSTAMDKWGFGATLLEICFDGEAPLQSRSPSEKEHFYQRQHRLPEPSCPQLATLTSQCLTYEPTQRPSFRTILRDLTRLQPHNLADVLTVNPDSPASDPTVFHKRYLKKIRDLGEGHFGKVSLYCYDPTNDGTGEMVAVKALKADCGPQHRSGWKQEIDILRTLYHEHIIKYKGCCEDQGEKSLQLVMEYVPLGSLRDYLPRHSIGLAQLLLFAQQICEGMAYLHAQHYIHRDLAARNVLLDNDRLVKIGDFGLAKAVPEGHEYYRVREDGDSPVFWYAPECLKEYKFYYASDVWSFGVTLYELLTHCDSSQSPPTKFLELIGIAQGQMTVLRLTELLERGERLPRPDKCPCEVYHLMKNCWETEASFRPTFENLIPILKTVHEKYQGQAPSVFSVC

Assay [2] addresses T1, TYK2. Kind of assay: HEK-Blue IFNα/β reporter assay (SEAP) for TYK2 pseudokinase inhibition. The note with it: HEK-Blue IFNα/β cells, 1 ng/mL human recombinant IFNα. In kind it is cell-based. As to the method: as §1
(In a reporter assay the amount or activity of a reporter protein is the signal.)

Take `O=c1[nH]n(-c2ccc(C(F)(F)F)cc2)c2cc(Nc3ccc(F)cn3)ncc12` [Compound I-67, 6-((5-fluoropyridin-2-yl)amino)-1-(4-(trifluoromethyl)phenyl)-1,2-dihydro-3H-pyrazolo[4,3-c]pyridin-3-one]: the IC50 at TYK2 [1] and on TYK2 [2] was under 10 µM each time.
As to `O=C(Nc1cc2c(cn1)c(=O)[nH]n2-c1ccc(C(F)(F)F)cc1)C1CC1` [Compound I-68, N-(3-oxo-1-(4-(trifluoromethyl)phenyl)-2,3-dihydro-1H-pyrazolo[4,3-c]pyridin-6-yl)cyclopropanecarboxamide], the IC50 on TYK2 [1] and on TYK2 [2] was under 10 µM each time.
In the case of `O=c1[nH]n(-c2ccc(OC(F)(F)F)cc2)c2cc(Nc3ccc(F)cn3)ncc12` [Compound I-70, 6-((5-fluoropyridin-2-yl)amino)-1-(4-(trifluoromethoxy)phenyl)-1,2-dihydro-3H-pyrazolo[4,3-c]pyridin-3-one], the IC50 at TYK2 [1] and on TYK2 [2] was under 10 µM in each case.
Consider `O=C(Nc1cc2c(cn1)c(=O)[nH]n2-c1ccc(OC(F)(F)F)cc1)C1CC1` [Compound I-71, N-(3-oxo-1-(4-(trifluoromethoxy)phenyl)-2,3-dihydro-1H-pyrazolo[4,3-c]pyridin-6-yl)cyclopropanecarboxamide], for which the IC50 on TYK2 [1] and on TYK2 [2] was under 10 µM in each case.
For `COC(=O)c1ccc(-n2[nH]c(=O)c3cnc(Nc4cc(C)nc(C)n4)cc32)cc1` [Compound I-74, methyl 4-(6-((2,6-dimethylpyrimidin-4-yl)amino)-3-oxo-2,3-dihydro-1H-pyrazolo[4,3-c]pyridin-1-yl)benzoate], the IC50 on TYK2 [1] and on TYK2 [2] was under 10 µM in each case.
`COC(=O)c1ccc(-n2[nH]c(=O)c3cnc(Nc4ccc(F)cn4)cc32)cc1` [Compound I-75, methyl 4-(6-((5-fluoropyridin-2-yl)amino)-3-oxo-2,3-dihydro-1H-pyrazolo[4,3-c]pyridin-1-yl)benzoate]: the IC50 on TYK2 [1] and on TYK2 [2] was under 10 µM throughout.
As for `COc1cc(-n2[nH]c(=O)c3cnc(Nc4cc(C)nc(C)n4)cc32)ccc1F` [Compound I-76, 6-((2,6-dimethylpyrimidin-4-yl)amino)-1-(4-fluoro-3-methoxyphenyl)-1,2-dihydro-3H-pyrazolo[4,3-c]pyridin-3-one], the IC50 on TYK2 [1] and on TYK2 [2] was under 10 µM in each case.
As to `COc1cc(-n2[nH]c(=O)c3cnc(Nc4ccc(F)cn4)cc32)ccc1F` [Compound I-77, 1-(4-fluoro-3-methoxyphenyl)-6-((5-fluoropyridin-2-yl)amino)-1,2-dihydro-3H-pyrazolo[4,3-c]pyridin-3-one], the IC50 at TYK2 [1] and at TYK2 [2] was under 10 µM in each case.
Consider `COc1cc(-n2[nH]c(=O)c3cnc(Nc4cc(C)nc(C)n4)cc32)ccc1Cl` [Compound I-78, 1-(4-chloro-3-methoxyphenyl)-6-((2,6-dimethylpyrimidin-4-yl)amino)-1,2-dihydro-3H-pyrazolo[4,3-c]pyridin-3-one], for which the IC50 on TYK2 [1] and on TYK2 [2] was over 90 µM each time.
For `COc1cc(-n2[nH]c(=O)c3cnc(Nc4ccc(F)cn4)cc32)ccc1Cl` [Compound I-79, 1-(4-chloro-3-methoxyphenyl)-6-((5-fluoropyridin-2-yl)amino)-1,2-dihydro-3H-pyrazolo[4,3-c]pyridin-3-one], the IC50 on TYK2 [1] and on TYK2 [2] was over 90 µM each time.
In the case of `COc1cc(-n2[nH]c(=O)c3cnc(Nc4cc(C)nc(C)n4)cc32)ccc1C#N` [Compound I-80, 4-(6-((2,6-dimethylpyrimidin-4-yl)amino)-3-oxo-2,3-dihydro-1H-pyrazolo[4,3-c]pyridin-1-yl)-2-methoxybenzonitrile], the IC50 is under 10 µM on TYK2 [1] and over 90 µM at TYK2 [2].
With `COc1cc(-n2[nH]c(=O)c3cnc(Nc4ccc(F)cn4)cc32)ccc1C#N` [Compound I-81, 4-(6-((5-fluoropyridin-2-yl)amino)-3-oxo-2,3-dihydro-1H-pyrazolo[4,3-c]pyridin-1-yl)-2-methoxybenzonitrile], the values for the IC50 on TYK2 [1] and on TYK2 [2] were under 10 µM and over 90 µM, respectively.
Turning to `COc1cc(-n2[nH]c(=O)c3cnc(NC(=O)C4CC4)cc32)ccc1C#N` [Compound I-82, N-(1-(4-cyano-3-methoxyphenyl)-3-oxo-2,3-dihydro-1H-pyrazolo[4,3-c]pyridin-6-yl)cyclopropanecarboxamide], the IC50 is under 10 µM on TYK2 [1] and 10 to 30 µM on TYK2 [2].
As for `COc1cc(-n2[nH]c(=O)c3cnc(Nc4cc(C)nc(C)n4)cc32)ccn1` [Compound I-83, 6-((2,6-dimethylpyrimidin-4-yl)amino)-1-(2-methoxypyridin-4-yl)-1,2-dihydro-3H-pyrazolo[4,3-c]pyridin-3-one], the IC50 at TYK2 [1] and on TYK2 [2] was under 10 µM throughout.
Regarding `COc1cc(-n2[nH]c(=O)c3cnc(Nc4ccc(F)cn4)cc32)ccn1` [Compound I-84, 6-((5-fluoropyridin-2-yl)amino)-1-(2-methoxypyridin-4-yl)-1,2-dihydro-3H-pyrazolo[4,3-c]pyridin-3-one], the IC50 on TYK2 [1] and on TYK2 [2] was under 10 µM in each case.
As to `Cc1cc(Nc2cc3c(cn2)c(=O)[nH]n3-c2ccc(Cl)c(Cl)c2)nc(C)n1` [Compound I-85, 1-(3,4-dichlorophenyl)-6-((2,6-dimethylpyrimidin-4-yl)amino)-1,2-dihydro-3H-pyrazolo[4,3-c]pyridin-3-one], the IC50 on TYK2 [1] and at TYK2 [2] was over 90 µM each time.
For `O=c1[nH]n(-c2ccc(Cl)c(Cl)c2)c2cc(Nc3ccc(F)cn3)ncc12` [Compound I-86, 1-(3,4-dichlorophenyl)-6-((5-fluoropyridin-2-yl)amino)-1,2-dihydro-3H-pyrazolo[4,3-c]pyridin-3-one], the IC50 at TYK2 [1] and on TYK2 [2] was over 90 µM throughout.
`Cc1cc(Nc2cc3c(cn2)c(=O)[nH]n3-c2ccc(C#N)c(Cl)c2)nc(C)n1` [Compound I-87, 2-chloro-4-(6-((2,6-dimethylpyrimidin-4-yl)amino)-3-oxo-2,3-dihydro-1H-pyrazolo[4,3-c]pyridin-1-yl)benzonitrile]: the IC50 at TYK2 [1] was under 10 µM; at TYK2 [2] it was over 90 µM.
Take `N#Cc1ccc(-n2[nH]c(=O)c3cnc(NC(=O)C4CC4)cc32)cc1Cl` [Compound I-89, N-(1-(3-chloro-4-cyanophenyl)-3-oxo-2,3-dihydro-1H-pyrazolo[4,3-c]pyridin-6-yl)cyclopropanecarboxamide]: the IC50 at TYK2 [1] and at TYK2 [2] was under 10 µM in each case.
As to `Cc1cc(Nc2cc3c(cn2)c(=O)[nH]n3-c2ccc(C#N)c(F)c2)nc(C)n1` [Compound I-90, 4-(6-((2,6-dimethylpyrimidin-4-yl)amino)-3-oxo-2,3-dihydro-1H-pyrazolo[4,3-c]pyridin-1-yl)-2-fluorobenzonitrile], the IC50 on TYK2 [1] and on TYK2 [2] was under 10 µM each time.
Consider `Cc1cc(Nc2cc3c(cn2)c(=O)[nH]n3-c2ccc(C#N)c(C(F)(F)F)c2)nc(C)n1` [Compound I-91, 4-(6-((2,6-dimethylpyrimidin-4-yl)amino)-3-oxo-2,3-dihydro-1H-pyrazolo[4,3-c]pyridin-1-yl)-2-(trifluoromethyl)benzonitrile], for which the IC50 at TYK2 [1] and on TYK2 [2] was under 10 µM each time.
In the case of `N#Cc1ccc(-n2[nH]c(=O)c3cnc(Nc4ccc(F)cn4)cc32)cc1C(F)(F)F` [Compound I-92, 4-(6-((5-fluoropyridin-2-yl)amino)-3-oxo-2,3-dihydro-1H-pyrazolo[4,3-c]pyridin-1-yl)-2-(trifluoromethyl)benzonitrile], the 50% inhibitory concentration (IC50) at TYK2 [1] and on TYK2 [2] was under 10 µM in each case.
`N#Cc1ccc(-n2[nH]c(=O)c3cnc(NC(=O)C4CC4)cc32)cc1C(F)(F)F` [Compound I-93, N-(1-(4-cyano-3-(trifluoromethyl)phenyl)-3-oxo-2,3-dihydro-1H-pyrazolo[4,3-c]pyridin-6-yl)cyclopropanecarboxamide]: the IC50 on TYK2 [1] and on TYK2 [2] was under 10 µM each time.
In the case of `Cc1cc(Nc2cc3c(cn2)c(=O)[nH]n3-c2cc(Cl)cc(Cl)c2)nc(C)n1` [Compound I-96, 1-(3,5-dichlorophenyl)-6-((2,6-dimethylpyrimidin-4-yl)amino)-1,2-dihydro-3H-pyrazolo[4,3-c]pyridin-3-one], the IC50 at TYK2 [1] is under 10 µM; at TYK2 [2], over 90 µM.
For `O=C(Nc1cc2c(cn1)c(=O)[nH]n2-c1cc(Cl)cc(Cl)c1)C1CC1` [Compound I-98, N-(1-(3,5-dichlorophenyl)-3-oxo-2,3-dihydro-1H-pyrazolo[4,3-c]pyridin-6-yl)cyclopropanecarboxamide] the same measures were under 10 µM and over 90 µM.
With `COc1c(F)cccc1-n1[nH]c(=O)c2cnc(Nc3cc(C)nc(C)n3)cc21` [Compound I-99, 6-((2,6-dimethylpyrimidin-4-yl)amino)-1-(3-fluoro-2-methoxyphenyl)-1,2-dihydro-3H-pyrazolo[4,3-c]pyridin-3-one], the IC50 at TYK2 [1] was under 10 µM; on TYK2 [2] it was 10 to 30 µM.
